Results reported in patent US20110201815A1, “FUSED HETEROCYCLIC DERIVATIVE AND USE THEREOF FOR MEDICAL PURPOSES” (KISSEI PHARMACEUTICAL CO., LTD., priority 2008, published 2011).

How the values were obtained:
[1] = target: T1, Xanthine oxidase (from bovine milk, Sigma) (Bos taurus, UniProt P80457); assay: Xanthine oxidase inhibitory activity; type: biochemical; conditions: xanthine 200 μM added, 10 minutes at room temperature, absorbance at 290 nm
T1 construct: Xanthine oxidase (from bovine milk, Sigma); purchased Sigma; host or cells: bovine milk
Experimental: Test compounds were dissolved in DMSO (Wako) at 40 mM concentration and then diluted to intended concentrations with phosphate-buffered saline (PBS).
Xanthine oxidase (from bovine milk, Sigma) was prepared with phosphate-buffered saline (PBS) at 0.02 units/mL, and then the solution was added to 96 well plates at 50 μL/well. In addition, test compounds diluted with PBS were added at 50 μL/well. Xanthine (Wako) at 200 μM prepared with PBS was added at 100 μL/well, and the reaction was measured for 10 minutes at room temperature. […] The absorbance under a condition without xanthine is 0%, and control without test compounds is 100%. Fifty % inhibitory concentration (IC50) of test compounds was calculated (Table 5). Ex. No in the table indicates example number.

human URAT1 = target: T2, human URAT1 (Homo sapiens, UniProt Q96S37); assay: Inhibitory activity of uric acid transport with human URAT1 expressing cells; type: cell-based; conditions: COS-7; concentration of 100 μM; 14C-uric acid uptake in COS7 cells transiently expressing human URAT1, 20 μM uric acid, 5 minutes; read-out: Percent inhibition
T2 construct: expressed in transfected cells; host or cells: COS7 cells (RIKEN CELL BANK RCB0539), transient transfection with pcDNA3.1
T2 sequence (Q96S37 1-553): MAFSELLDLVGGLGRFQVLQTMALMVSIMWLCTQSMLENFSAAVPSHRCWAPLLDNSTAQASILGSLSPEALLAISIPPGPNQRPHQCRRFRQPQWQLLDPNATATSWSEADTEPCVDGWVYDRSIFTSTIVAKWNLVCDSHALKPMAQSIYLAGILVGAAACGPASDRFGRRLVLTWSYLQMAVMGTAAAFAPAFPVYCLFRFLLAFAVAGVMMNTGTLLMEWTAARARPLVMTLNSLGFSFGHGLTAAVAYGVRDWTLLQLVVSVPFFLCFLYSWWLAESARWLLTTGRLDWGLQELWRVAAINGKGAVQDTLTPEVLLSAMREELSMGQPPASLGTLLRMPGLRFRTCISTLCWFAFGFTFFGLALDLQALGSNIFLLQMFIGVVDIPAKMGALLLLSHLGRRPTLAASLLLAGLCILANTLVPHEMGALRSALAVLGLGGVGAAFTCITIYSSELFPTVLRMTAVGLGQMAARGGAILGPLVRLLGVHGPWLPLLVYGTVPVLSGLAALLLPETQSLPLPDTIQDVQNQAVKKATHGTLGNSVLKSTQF
Experimental: Full length human URAT1 cDNA (NCBI Accession No. NM_144585) was subcloned into expression vector, pcDNA3.1 (Invitrogen). Human URAT1 expression vector was transfected into COS7 cells (RIKEN CELL BANK RCB0539) using Lipofectamine 2000 (Invitrogen). COS7 cells were seeded in collagen-coated 24 well plates (Japan Becton Dickinson) at 90-95% confluency and cultured in D-MEM culture medium (Invitrogen) containing 10% fetal bovine serum (Sanko Junyaku) for 2 hours at 37° C. under the condition of 5% CO2. For 1 well, 2 μL of Lipofectamine 2000 was diluted in 50 μL of OPTI-MEM (Invitrogen) and allowed to stand at room temperature for 7 minutes (hereinafter referred to as Lipo2000-OPTI). For 1 well, 0.8 μg of human URAT1 expression vector was diluted in 50 μL of OPTI-MEM (Invitrogen) and combined gently with Lipo2000-OPTI. After standing at room temperature for 25 minutes, the mixture was added to COS7 cells at 100 μL/well. […]
All tests were performed on hot-plate at 37° C. […] After mixing, the radioactivity was counted in a liquid scintillation counter (PerkinElmer). The radioactivity in COS7 cells not transfected with URAT1 expression vector was also counted under the same condition as control. […]
A: Radioactivity in control B: Radioactivity in the case of addition of test compounds C: Radioactivity in COS7 cells not transfected with URAT1 expression vector

T1 sequence (P80457 whole entry): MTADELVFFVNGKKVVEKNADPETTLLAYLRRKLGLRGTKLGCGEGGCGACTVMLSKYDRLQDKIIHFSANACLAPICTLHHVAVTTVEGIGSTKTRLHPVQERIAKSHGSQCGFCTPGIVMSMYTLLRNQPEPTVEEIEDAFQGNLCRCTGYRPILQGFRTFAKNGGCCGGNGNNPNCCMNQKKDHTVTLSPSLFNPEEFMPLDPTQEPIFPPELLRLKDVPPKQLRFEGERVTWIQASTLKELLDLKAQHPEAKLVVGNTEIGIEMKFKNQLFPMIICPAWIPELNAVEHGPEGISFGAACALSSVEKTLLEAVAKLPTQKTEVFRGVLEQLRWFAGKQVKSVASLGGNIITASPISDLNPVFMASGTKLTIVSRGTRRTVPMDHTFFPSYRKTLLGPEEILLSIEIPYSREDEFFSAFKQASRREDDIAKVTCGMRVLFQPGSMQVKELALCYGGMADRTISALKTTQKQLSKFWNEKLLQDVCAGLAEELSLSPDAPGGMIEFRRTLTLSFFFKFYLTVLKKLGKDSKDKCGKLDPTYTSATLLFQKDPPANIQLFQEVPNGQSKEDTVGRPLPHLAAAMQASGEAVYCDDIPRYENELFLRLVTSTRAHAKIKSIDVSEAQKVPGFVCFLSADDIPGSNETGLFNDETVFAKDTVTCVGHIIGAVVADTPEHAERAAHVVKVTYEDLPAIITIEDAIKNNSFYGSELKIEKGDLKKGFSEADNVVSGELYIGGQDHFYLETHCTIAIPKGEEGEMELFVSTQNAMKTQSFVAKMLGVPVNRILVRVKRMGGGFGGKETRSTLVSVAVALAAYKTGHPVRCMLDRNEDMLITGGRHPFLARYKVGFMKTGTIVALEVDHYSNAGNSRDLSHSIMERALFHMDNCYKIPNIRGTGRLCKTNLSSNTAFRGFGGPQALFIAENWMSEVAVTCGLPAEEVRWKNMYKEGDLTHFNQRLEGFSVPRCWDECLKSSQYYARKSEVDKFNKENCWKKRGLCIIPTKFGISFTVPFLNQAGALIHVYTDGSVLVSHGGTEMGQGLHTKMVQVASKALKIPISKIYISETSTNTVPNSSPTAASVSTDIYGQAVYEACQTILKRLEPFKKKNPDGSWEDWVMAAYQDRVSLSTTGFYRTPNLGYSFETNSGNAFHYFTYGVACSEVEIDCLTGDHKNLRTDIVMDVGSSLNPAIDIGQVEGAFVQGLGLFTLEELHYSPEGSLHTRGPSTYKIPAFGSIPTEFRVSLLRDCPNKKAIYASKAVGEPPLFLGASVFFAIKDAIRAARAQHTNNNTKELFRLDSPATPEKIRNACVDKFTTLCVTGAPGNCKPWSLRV

SMILES | IC50 [1] [nM] | inhibition at 100 µM (human URAT1) [%]
CC(C)Cn1ccc2cc(-c3cc(C(=O)O)ccn3)cc([N+](=O)[O-])c21 [Example 9] | 13 | –
Cn1ccc2cc(-c3cc(C(=O)O)ccn3)cc(C#N)c21 [Example 12, 2-(7-Cyano-1-methyl-1H-indole-5-yl) isonicotinic acid] | 17 | –
COCCn1ccc2cc(-c3cc(C(=O)O)ccn3)cc([N+](=O)[O-])c21 [Example 10] | 114 | –
Cc1nc(-c2cc(C#N)c3c(c2)c(C)cn3CC(C)C)sc1C(=O)O [Example 7] | 31 | –
Cc1nc(-c2cc(C#N)c3c(c2)c(C)cn3C)sc1C(=O)O [Example 1, 2-(7-Cyano-1,3-dimethyl-1H-indole-5-yl)-4-methylthiazole-5-carboxylic acid] | 19 | –
O=C(O)c1ccnc(-c2cc([N+](=O)[O-])c3occc3c2)c1 [Example 4, 2-(7-Nitrobenzofuran-5-yl) isonicotinic acid] | 254 | –
Cn1ccc2cc(-c3cc(C(=O)O)ccn3)cc([N+](=O)[O-])c21 [Example 2, 2-(1-Methyl-7-nitro-1H-indole-5-yl) isonicotinic acid] | 48 | > 80

Now those with a lower IC50 [1], led by results:

IC50 [1] [nM] | inhibition at 100 µM (human URAT1) [%] | SMILES
12 | – | N#Cc1cc(-c2cc(C(=O)O)ccn2)cc2cc[nH]c12 [Example 11, 2-(7-Cyano-1H-indole-5-yl) isonicotinic acid]
7 | – | Cc1nc(-c2cc(C#N)c3[nH]ccc3c2)sc1C(=O)O [Example 13]
10 | – | Cc1nc(-c2cc(C#N)c3c(c2)c(C)cn3C(C)C)sc1C(=O)O [Example 8]
8 | – | Cc1nc(-c2cc([N+](=O)[O-])c3c(ccn3C)c2)sc1C(=O)O [Example 3, 4-Methyl-2-(1-methyl-7-nitro-1H-indole-5-yl) thiazole-5-carboxylic acid]
